Starred links: 1 amine or outer side, 2 acyl side, 3 side chain; linkers in the order of their positions; H or OH if unused. Non-standard residues stand in square brackets, D forms with d. Residues, ends and D or L forms follow the SMILES beside them. X1 = O=C([C@@H]1C[C@@H](c2ccccc2)[C@@H]1CN[*:1])[*:2]; X2 = O=C([C@H]1C[C@H](c2ccccc2)[C@H]1CN[*:1])[*:2]
Target: Neuropeptide Y receptor type 1 (Homo sapiens) (UniProt P25929)
Assay: Displacement of [3H]UR-MK299 from human Y1 receptor expressed in human SK-N-MC cells measured after 90 mins by MicroBeta plate counter based competition binding assay

Chain of Neuropeptide Y receptor type 1 (Homo sapiens) (P25929 whole entry, looked up): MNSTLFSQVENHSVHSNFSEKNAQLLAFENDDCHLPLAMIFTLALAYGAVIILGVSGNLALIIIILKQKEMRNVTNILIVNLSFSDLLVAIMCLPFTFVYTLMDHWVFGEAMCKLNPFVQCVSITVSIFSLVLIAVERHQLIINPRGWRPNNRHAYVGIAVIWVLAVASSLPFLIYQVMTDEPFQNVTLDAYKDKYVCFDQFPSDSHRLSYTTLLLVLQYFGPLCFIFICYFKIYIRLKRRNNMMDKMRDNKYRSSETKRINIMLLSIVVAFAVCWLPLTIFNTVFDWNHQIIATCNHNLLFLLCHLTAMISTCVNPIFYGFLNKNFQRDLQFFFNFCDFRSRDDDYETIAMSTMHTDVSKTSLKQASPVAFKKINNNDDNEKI

Row | Compound | Ki [µM]
1 | CC(=O)N[C@@H](CCCNC(=N)N)C(=O)NC[C@@H]1[C@H](C(=O)N[C@@H](CCCNC(=N)N)C(=O)N[C@@H](CC(C)C)C(=O)N[C@@H](CCCNC(=N)N)C(=O)N[C@@H](Cc2ccc(O)cc2)C(N)=O)C[C@H]1c1ccccc1 (Ac-R[X1]RLRY-NH2) | 0.23
2 | CC(=O)N[C@@H](CCCNC(=N)N)C(=O)NC[C@H]1[C@@H](C(=O)N[C@@H](CCCNC(=N)N)C(=O)N[C@@H](CC(C)C)C(=O)N[C@@H](CCCNC(=N)N)C(=O)N[C@@H](Cc2ccc(O)cc2)C(N)=O)C[C@@H]1c1ccccc1 (Ac-R[X2]RLRY-NH2) | > 3
3 | CC(=O)N[C@@H](CCCNC(=N)N)C(=O)NC[C@H]1[C@@H](C(=O)N[C@@H](CCCNC(=N)N)C(=O)NC[C@H]2[C@@H](C(=O)N[C@@H](CCCNC(=N)N)C(=O)N[C@@H](Cc3ccc(O)cc3)C(N)=O)C[C@@H]2c2ccccc2)C[C@@H]1c1ccccc1 (Ac-R[X2]R[X2]RY-NH2) | > 1.05

Continued, values first:

Row | Ki [µM] | Compound
4 | 1.18 | CC(=O)N[C@@H](CCCNC(=N)N)C(=O)N[C@@H](Cc1ccc(O)cc1)C(=O)N[C@@H](CCCNC(=N)N)C(=O)N[C@@H](CC(C)C)C(=O)N[C@@H](CCCNC(=N)N)C(=O)N[C@@H](Cc1ccc(O)cc1)C(N)=O
5 | > 1 | CC(=O)N[C@@H](CCCNC(=N)N)C(=O)NC[C@@H]1[C@H](C(=O)N[C@@H](CCCNC(=N)N)C(=O)NC[C@@H]2[C@H](C(=O)N[C@@H](CCCNC(=N)N)C(=O)N[C@@H](Cc3ccc(O)cc3)C(N)=O)C[C@H]2c2ccccc2)C[C@H]1c1ccccc1 (Ac-R[X1]R[X1]RY-NH2)

From BindingDB's records for doi:10.1021/acs.jmedchem.3c00363 (University of Regensburg, 2023)
